From PubChem BioAssay AID330 (DTP/NCI, 2004)
Values joined by “and” are separate entries in the source; they are usually repeats but may differ in a detail not shown here. Identical values can stand only once. Toxic doses and inconclusive results are not listed. How the source made its calls: active means survival T/C of 150% or more; inactive means T/C below 125% in these data. Peptide text beside a SMILES is read from it. * marks the point of attachment. Cbz = O=C(OCc1ccccc1)*

Test system: P388 leukemia ip, CD2F1 mice, survival T/C
Test: NCI In Vivo Anticancer Drug Screen. Data for tumor model P388 Leukemia (intraperitoneal) in CD2F1 (CDF1) mice
Settings: endpoint: median survival time, higher = longer survival
Method in brief: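 Mice carrying the transplanted tumor received test compound or vehicle. Survival was recorded in each group, and the value is the treated-group measurement divided by that of the vehicle-treated control group.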

[1] = dose: 60.0 mg/kg/injection, schedule: Q01DX005 (ip), vehicle: Klucel (hydroxypropylcellulose) (HPC)
[2] = dose: 120.0 mg/kg/injection, schedule: Q01DX005 (ip), vehicle: Klucel (hydroxypropylcellulose) (HPC)
[3] = dose: 240.0 mg/kg/injection, schedule: Q01DX005 (ip), vehicle: Klucel (hydroxypropylcellulose) (HPC)
[4] = dose: 12.5 mg/kg/injection, schedule: Q01DX009 (ip), vehicle: saline with Tween-80
[5] = dose: 25.0 mg/kg/injection, schedule: Q01DX009 (ip), vehicle: saline with Tween-80
[6] = dose: 50.0 mg/kg/injection, schedule: Q01DX009 (ip), vehicle: saline with Tween-80
[7] = dose: 100.0 mg/kg/injection, schedule: Q01DX009 (ip), vehicle: saline with Tween-80
[8] = dose: 200.0 mg/kg/injection, schedule: Q01DX009 (ip), vehicle: saline with Tween-80
[9] = dose: 6.25 mg/kg/injection, schedule: Q01DX005 (ip), vehicle: saline with Tween-80

Measured: T/C

CC(O)Cc1c(N)n2c(nc3ccccc32)[nH]c1=O (stereo unspecified)
inactive: [1] 102 % of control | [2] 97 % of control | [3] 92 % of control

CCCCCCCCCCCCCCNC(=O)C[N+](C)(C)Cc1ccccc1
inactive: dose: 0.25 mg/kg/injection, schedule: Q01DX009 (ip), vehicle: saline with Tween-80 100 % of control | dose: 0.5 mg/kg/injection, schedule: Q01DX009 (ip), vehicle: saline with Tween-80 100 % of control | dose: 1.0 mg/kg/injection, schedule: Q01DX009 (ip), vehicle: saline with Tween-80 100 % of control

COc1ccccc1C1OC2=Nc3cc(C)c(C)cc3NC2C1=O (stereo unspecified)
inactive: dose: 30.0 mg/kg/injection, schedule: Q01DX005 (ip), vehicle: Klucel (hydroxypropylcellulose) (HPC) 96 % of control | [1] 93 % of control | [2] 90 % of control | [3] 95 % of control

Cc1cccc2c(-c3ccccc3)c3cccc[n+]3cc12
inactive: dose: 0.78 mg/kg/injection, schedule: Q01DX005 (ip), vehicle: Klucel (hydroxypropylcellulose) (HPC) 100 % of control and 103 % of control | dose: 1.56 mg/kg/injection, schedule: Q01DX005 (ip), vehicle: Klucel (hydroxypropylcellulose) (HPC) 108 % of control and 89 % of control | dose: 3.12 mg/kg/injection, schedule: Q01DX005 (ip), vehicle: Klucel (hydroxypropylcellulose) (HPC) 103 % of control and 97 % of control | dose: 6.25 mg/kg/injection, schedule: Q01DX005 (ip), vehicle: Klucel (hydroxypropylcellulose) (HPC) 94 % of control

C1=CSC(=C2SC=CS2)S1
inactive: dose: 6.25 mg/kg/injection, schedule: Q01DX009 (ip), vehicle: saline with Tween-80 106 % of control | [4] 106 % of control and 97 % of control | [5] 102 % of control and 110 % of control | [6] 100 % of control and 106 % of control and 114 % of control | [7] 108 % of control | [8] 100 % of control

CC1CN=C(c2ccc(NC(=O)Nc3ccc(C4=NCC(C)N4)cc3)cc2)N1 (stereo unspecified)
inactive: dose: 0.4 mg/kg/injection, schedule: Q01DX005 (ip), vehicle: saline with Tween-80 106 % of control | dose: 0.78 mg/kg/injection, schedule: Q01DX005 (ip), vehicle: saline with Tween-80 104 % of control | dose: 1.56 mg/kg/injection, schedule: Q01DX005 (ip), vehicle: saline with Tween-80 117 % of control and 118 % of control | dose: 3.13 mg/kg/injection, schedule: Q01DX005 (ip), vehicle: saline with Tween-80 117 % of control | [9] 110 % of control

O=S(=O)(/N=C1/C=CC=CC1=C(N1CCOCC1)N1CCOCC1)c1ccccc1
inactive: dose: 50.0 mg/kg/injection, schedule: Q04DX003 (ip), vehicle: saline 104 % of control | dose: 100.0 mg/kg/injection, schedule: Q04DX003 (ip), vehicle: saline 111 % of control | dose: 200.0 mg/kg/injection, schedule: Q04DX003 (ip), vehicle: saline 105 % of control

CC1CCC(C(C)C)C(NC(=O)C[n+]2cccc(C(N)=O)c2)C1 (stereo unspecified)
inactive: dose: 12.5 mg/kg/injection, schedule: Q04DX002 (ip), vehicle: saline 99 % of control | dose: 25.0 mg/kg/injection, schedule: Q04DX002 (ip), vehicle: saline 105 % of control | dose: 50.0 mg/kg/injection, schedule: Q04DX002 (ip), vehicle: saline 101 % of control

Cc1ccc(-c2cs/c(=N\N=C3/CSC(=O)N3Cc3ccccc3)n2-c2cccc(C)c2)cc1
inactive: dose: 100.0 mg/kg/injection, schedule: Q04DX002 (ip), vehicle: Klucel (hydroxypropylcellulose) (HPC) 89 % of control | dose: 200.0 mg/kg/injection, schedule: Q04DX002 (ip), vehicle: Klucel (hydroxypropylcellulose) (HPC) 89 % of control | dose: 400.0 mg/kg/injection, schedule: Q04DX002 (ip), vehicle: Klucel (hydroxypropylcellulose) (HPC) 91 % of control

COC(=O)/C=C/C(=O)NC(N)=O
inactive: dose: 6.25 mg/kg/injection, schedule: Q04DX003 (ip), vehicle: saline 100 % of control | dose: 12.5 mg/kg/injection, schedule: Q04DX003 (ip), vehicle: saline 109 % of control | dose: 25.0 mg/kg/injection, schedule: Q04DX003 (ip), vehicle: saline 100 % of control

CC(=O)Nc1ccc(S(=O)(=O)N/N=C/c2cccc([N+](=O)[O-])c2O)cc1
inactive: dose: 60.0 mg/kg/injection, schedule: Q01DX005 (ip), vehicle: saline with Tween-80 104 % of control | dose: 120.0 mg/kg/injection, schedule: Q01DX005 (ip), vehicle: saline with Tween-80 104 % of control | dose: 240.0 mg/kg/injection, schedule: Q01DX005 (ip), vehicle: saline with Tween-80 103 % of control

COP(=O)(CC(=O)CCCCCOC1CCCCO1)OC (stereo unspecified)
inactive: dose: 50.0 mg/kg/injection, schedule: Q01DX005 (ip), vehicle: saline 100 % of control | dose: 100.0 mg/kg/injection, schedule: Q01DX005 (ip), vehicle: saline 100 % of control | dose: 200.0 mg/kg/injection, schedule: Q01DX005 (ip), vehicle: saline 99 % of control

CCCCCCCCCCCC1CCCC(C)N1 (stereo unspecified)
inactive: dose: 12.5 mg/kg/injection, schedule: Q01DX005 (ip), vehicle: Klucel (hydroxypropylcellulose) (HPC) 104 % of control | dose: 25.0 mg/kg/injection, schedule: Q01DX005 (ip), vehicle: Klucel (hydroxypropylcellulose) (HPC) 100 % of control | dose: 50.0 mg/kg/injection, schedule: Q01DX005 (ip), vehicle: Klucel (hydroxypropylcellulose) (HPC) 101 % of control

O=C1C(C(=Nc2ccc(Br)cc2)c2ccccc2)=C(O)c2ccccc21
inactive: dose: 25.0 mg/kg/injection, schedule: Q04DX002 (ip), vehicle: saline with Tween-80 93 % of control | dose: 50.0 mg/kg/injection, schedule: Q04DX002 (ip), vehicle: saline with Tween-80 99 % of control | dose: 100.0 mg/kg/injection, schedule: Q04DX002 (ip), vehicle: saline with Tween-80 92 % of control

O=C(NC(Cc1ccccc1)C(=O)NC(CO)C(=O)O)OCc1ccccc1 (stereo not drawn) (Cbz-Phe-Ser-OH; configuration not given here)
inactive: dose: 50.0 mg/kg/injection, schedule: Q01DX005 (ip), vehicle: saline with Tween-80 100 % of control | dose: 100.0 mg/kg/injection, schedule: Q01DX005 (ip), vehicle: saline with Tween-80 100 % of control | dose: 200.0 mg/kg/injection, schedule: Q01DX005 (ip), vehicle: saline with Tween-80 98 % of control

CN(C)c1nc(N)c(N=O)c(=O)[nH]1
inactive: [4] 104 % of control | [5] 94 % of control | [6] 94 % of control | dose: 50.0 mg/kg/injection, schedule: Q01DX009 (ip), vehicle: saline 87 % of control | dose: 50.0 mg/kg/injection, schedule: Q04DX003 (ip), vehicle: saline with Tween-80 94 % of control | dose: 100.0 mg/kg/injection, schedule: Q04DX003 (ip), vehicle: saline with Tween-80 93 % of control

COc1cc(/C=N/NC(=O)COCC(=O)N/N=C/c2ccc(O)cc2OC)ccc1O
inactive: [9] 103 % of control | dose: 12.5 mg/kg/injection, schedule: Q01DX005 (ip), vehicle: saline with Tween-80 101 % of control | dose: 25.0 mg/kg/injection, schedule: Q01DX005 (ip), vehicle: saline with Tween-80 105 % of control

Cn1c([N+](=O)[O-])cnc1/C=C1/Cc2cc(OCCN3CCCCCC3)ccc2C1=O
inactive: [5] 110 % of control | [6] 101 % of control | [7] 109 % of control

CCCCCCCCCCCCCCCCCc1ccccc1O
inactive: dose: 7.5 mg/kg/injection, schedule: Q01DX009 (ip), vehicle: saline with Tween-80 91 % of control | dose: 15.0 mg/kg/injection, schedule: Q01DX009 (ip), vehicle: saline with Tween-80 94 % of control | dose: 30.0 mg/kg/injection, schedule: Q01DX009 (ip), vehicle: saline with Tween-80 116 % of control

O=C1CC2C=CC2C1 (stereo unspecified)
inactive: dose: 6.25 mg/kg/injection, schedule: Q01DX009 (ip), vehicle: saline 113 % of control | dose: 12.5 mg/kg/injection, schedule: Q01DX009 (ip), vehicle: saline 103 % of control | dose: 25.0 mg/kg/injection, schedule: Q01DX009 (ip), vehicle: saline 103 % of control | [8] 95 % of control
